Experimental data as given in ChEMBL document CHEMBL1201862, “PubChem BioAssay data set” (2004).
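Growth conditions: 96-well plates. Treatment: test compound, 48 hours, 5 concentrations. Analysis: linear interpolation between bracketing concentrations; unreached endpoints set to highest concentration. GI50 marks 50% less growth.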 Active and inactive are the calls of the source. Rule as the data show it: active = GI50 up to about 1.1 µM and inactive = higher.

Experiments:
Experiment in all cases: growth of human tumour cells (NCI), 48 h
SK-MEL-28 = system: SK-MEL-28
IGROV-1 = system: IGROV-1
MOLT-4 = system: MOLT-4
UO-31 = system: UO-31
U-251 = system: U-251
SW-620 = system: SW-620
COLO 205 = system: COLO 205
M14 = system: M14
NCI-H522 = system: NCI-H522
NCI/ADR-RES = system: NCI/ADR-RES
T47D = system: T47D
HT-29 = system: HT-29
UACC-257 = system: UACC-257
RXF 393 = system: RXF 393
DU-145 = system: DU-145
Malme-3M = system: Malme-3M
786-0 = system: 786-0
SK-MEL-5 = system: SK-MEL-5
CAKI-1 = system: CAKI-1
SF-539 = system: SF-539

CCCc1cc(=O)oc2c(C=O)c(O)cc(O)c12
GI50 (SK-MEL-28): 23.2 µM (inactive)
GI50 (IGROV-1): 30.9 µM (inactive)
GI50 (MOLT-4): 23.3 µM (inactive)
GI50 (UO-31): 22.8 µM (inactive)
GI50 (U-251): 22.5 µM (inactive)
GI50 (SW-620): 21.8 µM (inactive)
GI50 (COLO 205): 17.7 µM (inactive)
GI50 (M14): 22.8 µM (inactive)
GI50 (NCI-H522): 15.1 µM (inactive)
GI50 (NCI/ADR-RES): 27.4 µM (inactive)
GI50 (T47D): 23.1 µM (inactive)
GI50 (HT-29): 22.1 µM (inactive)
GI50 (UACC-257): 24.6 µM (inactive)
GI50 (RXF 393): 24 µM (inactive)
GI50 (DU-145): 27.5 µM (inactive)
GI50 (Malme-3M): 18.5 µM (inactive)
GI50 (786-0): 30.1 µM (inactive)
GI50 (SK-MEL-5): 17.4 µM (inactive)
GI50 (CAKI-1): 27 µM (inactive)
GI50 (SF-539): 26.7 µM (inactive)

COC(=O)c1cc(=O)n(-c2ccc3nn(C)nc3c2)cc1C(=O)OC
GI50 (SK-MEL-28): > 100 µM (inactive)
GI50 (IGROV-1): > 100 µM (inactive)
GI50 (MOLT-4): > 100 µM (inactive)
GI50 (UO-31): > 100 µM (inactive)
GI50 (U-251): > 100 µM (inactive)
GI50 (SW-620): > 100 µM (inactive)
GI50 (COLO 205): > 100 µM (inactive)
GI50 (M14): > 100 µM (inactive)
GI50 (NCI-H522): > 100 µM (inactive)
GI50 (NCI/ADR-RES): > 100 µM (inactive)
GI50 (T47D): > 100 µM (inactive)
GI50 (HT-29): > 100 µM (inactive)
GI50 (UACC-257): > 100 µM (inactive)
GI50 (RXF 393): > 100 µM (inactive)
GI50 (DU-145): > 100 µM (inactive)
GI50 (Malme-3M): > 100 µM (inactive)
GI50 (786-0): > 100 µM (inactive)
GI50 (SK-MEL-5): > 100 µM (inactive)
GI50 (CAKI-1): > 100 µM (inactive)
GI50 (SF-539): > 100 µM (inactive)

O=c1c2ccccc2n2nnc3ccc(NCCNCCO)c1c32
GI50 (SK-MEL-28): 2.87 µM (inactive)
GI50 (IGROV-1): 2.47 µM (inactive)
GI50 (MOLT-4): 0.361 µM (active)
GI50 (UO-31): 0.863 µM (active)
GI50 (U-251): 0.944 µM (active)
GI50 (SW-620): 0.71 µM (active)
GI50 (COLO 205): 0.946 µM (active)
GI50 (M14): 1.91 µM (inactive)
GI50 (NCI-H522): 1.82 µM (inactive)
GI50 (NCI/ADR-RES): 1.08 µM (active)
GI50 (T47D): 5.82 µM (inactive)
GI50 (HT-29): 0.74 µM (active)
GI50 (UACC-257): 3.32 µM (inactive)
GI50 (RXF 393): 1.87 µM (inactive)
GI50 (DU-145): 0.112 µM (active)
GI50 (Malme-3M): 1.87 µM (inactive)
GI50 (786-0): 1.02 µM (active)
GI50 (SK-MEL-5): 1.53 µM (inactive)
GI50 (CAKI-1): 1.84 µM (inactive)
GI50 (SF-539): 3.78 µM (inactive)

Clc1cccc(Cl)c1C1SCc2nc3ncccc3n21 (stereo not given)
GI50 (SK-MEL-28): > 100 µM (inactive)
GI50 (IGROV-1): > 100 µM (inactive)
GI50 (MOLT-4): 61.8 µM (inactive)
GI50 (UO-31): > 100 µM (inactive)
GI50 (U-251): > 100 µM (inactive)
GI50 (SW-620): > 100 µM (inactive)
GI50 (COLO 205): > 100 µM (inactive)
GI50 (M14): > 100 µM (inactive)
GI50 (NCI-H522): > 100 µM (inactive)
GI50 (NCI/ADR-RES): > 100 µM (inactive)
GI50 (T47D): > 100 µM (inactive)
GI50 (HT-29): > 100 µM (inactive)
GI50 (UACC-257): > 100 µM (inactive)
GI50 (RXF 393): > 100 µM (inactive)
GI50 (DU-145): > 100 µM (inactive)
GI50 (Malme-3M): 55.8 µM (inactive)
GI50 (786-0): > 100 µM (inactive)
GI50 (SK-MEL-5): 65.8 µM (inactive)
GI50 (CAKI-1): 8.07 µM (inactive)
GI50 (SF-539): > 100 µM (inactive)

CC(=O)O[C@H]1C(=O)[C@@]2(C)C(C(OC(=O)c3ccccc3)[C@]3(O)C[C@H](OC(=O)C(OC(=O)CCCC(=O)NCCCN(C)C)C(NC(=O)c4ccccc4)c4ccccc4)C(C)=C1C3(C)C)C1(OC(C)=O)COC1C[C@@H]2O (stereo not given in full)
GI50 (SK-MEL-28): < 0.01 µM (active)
GI50 (IGROV-1): 0.0138 µM (active)
GI50 (MOLT-4): < 0.01 µM (active)
GI50 (UO-31): 1.02 µM (active)
GI50 (U-251): < 0.01 µM (active)
GI50 (SW-620): < 0.01 µM (active)
GI50 (COLO 205): < 0.01 µM (active)
GI50 (M14): < 0.01 µM (active)
GI50 (NCI-H522): < 0.01 µM (active)
GI50 (NCI/ADR-RES): 5.02 µM (inactive)
GI50 (T47D): 0.149 µM (active)
GI50 (HT-29): < 0.01 µM (active)
GI50 (UACC-257): 0.0143 µM (active)
GI50 (RXF 393): 0.0171 µM (active)
GI50 (DU-145): 0.0105 µM (active)
GI50 (Malme-3M): < 0.01 µM (active)
GI50 (786-0): 0.0134 µM (active)
GI50 (SK-MEL-5): < 0.01 µM (active)
GI50 (CAKI-1): 0.859 µM (active)
GI50 (SF-539): < 0.01 µM (active)

C1CN2CCNCCN(CCN1)CC2
GI50 (SK-MEL-28): > 100 µM (inactive)
GI50 (IGROV-1): > 100 µM (inactive)
GI50 (MOLT-4): > 100 µM (inactive)
GI50 (UO-31): > 100 µM (inactive)
GI50 (U-251): > 100 µM (inactive)
GI50 (SW-620): > 100 µM (inactive)
GI50 (COLO 205): > 100 µM (inactive)
GI50 (M14): > 100 µM (inactive)
GI50 (NCI-H522): > 100 µM (inactive)
GI50 (NCI/ADR-RES): > 100 µM (inactive)
GI50 (T47D): > 100 µM (inactive)
GI50 (HT-29): > 100 µM (inactive)
GI50 (UACC-257): > 100 µM (inactive)
GI50 (RXF 393): > 100 µM (inactive)
GI50 (DU-145): > 100 µM (inactive)
GI50 (Malme-3M): > 100 µM (inactive)
GI50 (786-0): > 100 µM (inactive)
GI50 (SK-MEL-5): > 100 µM (inactive)
GI50 (CAKI-1): > 100 µM (inactive)
GI50 (SF-539): > 100 µM (inactive)

O=C(O)c1ccccc1-c1ccccc1C(=O)Nc1ccc2c(c1)nc(O)c1ccccc12
GI50 (SK-MEL-28): > 100 µM (inactive)
GI50 (IGROV-1): 94.4 µM (inactive)
GI50 (MOLT-4): 25.8 µM (inactive)
GI50 (UO-31): > 100 µM (inactive)
GI50 (U-251): 51.9 µM (inactive)
GI50 (SW-620): > 100 µM (inactive)
GI50 (COLO 205): > 100 µM (inactive)
GI50 (M14): > 100 µM (inactive)
GI50 (NCI-H522): 61.8 µM (inactive)
GI50 (NCI/ADR-RES): > 100 µM (inactive)
GI50 (T47D): > 100 µM (inactive)
GI50 (HT-29): > 100 µM (inactive)
GI50 (UACC-257): > 100 µM (inactive)
GI50 (RXF 393): > 100 µM (inactive)
GI50 (DU-145): > 100 µM (inactive)
GI50 (Malme-3M): > 100 µM (inactive)
GI50 (786-0): > 100 µM (inactive)
GI50 (SK-MEL-5): > 100 µM (inactive)
GI50 (CAKI-1): > 100 µM (inactive)
GI50 (SF-539): 94.2 µM (inactive)
